In patent US20020049173A1, “Alteration of cellular behavior by antisense modulation of mRNA processing” (priority 1999, published 2002):
In the oligonucleotide strings, read from the 5' end, every base follows the letter of its sugar. An asterisk marks phosphorothioate; unmarked linkages are phosphodiester. Other units and linkages are bracketed, terminal groups are in braces. A string of capitals states the bases alone. e = 2'-O-(2-methoxyethyl) (MOE); [5mC] = 5-methylcytosine

Legend:
human bcl-xs mRNA = assay: bcl-xs mRNA in A549 cells, RIBOQUANT RNase protection; type: cell-based; settings: 200 nM oligonucleotide (Table 15)
Excerpt: (§1) In accordance with the present invention, a series of oligonucleotides were designed to target different regions of human bcl-x RNA, using published sequences (Boise, L. H., et al., 1993, Cell 74, 597-608; Genbank Accession No. L20121, locus name “HSBCLXL,” incorporated herein as SEQ ID NO: 39). Antisense oligonucleotides were designed to target areas of exon 1 and exon 2 of human bcl-x, particularly around the exon 1/exon 2 splice site and in sequence regions present in bcl-xl but not in bcl-xs. All backbone linkages are phosphorothioates; All 2′MOE cytosines are 5-methylcytosines.
(§2) Oligonucleotides were evaluated for their respective effects on bcl-xs and bcl-xl3 mRNA levels in A549 cells along with total bcl-x mRNA levels, using the RIBOQUANT™ RNase protection kit (Pharmingen, San Diego Calif.). All assays were performed according to manufacturer's protocols.
(§3) A “walk” was done in this region with 20mer 2′-MOE phosphorothioate oligonucleotides targeted to sequences whose 5′ ends were 24, 26, 29, 31, 33, 37, 39, 41, 43, 44, 45 and 47 bases upstream of the splice site. These oligonucleotides were screened as before at a dose of 200 nM oligonucleotide for effect on short and long bcl-x transcripts.

human bcl-xl mRNA = assay: bcl-xl mRNA in A549 cells, RIBOQUANT RNase protection; type: cell-based; settings: 200 nM oligonucleotide (Table 15)
Excerpt: as §1, §2, §3

human bcl-x mRNA = assay: Total bcl-x mRNA and bcl-xs/bcl-xl ratio in A549 cells, RNase protection; type: cell-based; settings: A549 cells; for bcl-xs/bcl-xl: 200 nM oligonucleotide (Table 15)
Excerpt: as §1, §2, §3

[1] = system: murine IL-5 receptor α mRNA, membrane form; assay: Membrane IL-5 receptor α mRNA by Northern blot in BCL1 cells; type: cell-based, mouse; settings: for % control membrane IL-5 Rα / % inhib'n membrane IL-5 Rα / % inhibition of membrane IL-5 Rα: BCL1 cells, 10 μM; for % control membrane IL-5 Rα / % inhib'n membrane IL-5 Rα: 24 hours, uniform 2′-MOE; for % inhibition of membrane IL-5 Rα: Northern blot, compared to untreated control, 2′-MOE gapmers; for % INHIB'N MEMBRANE IL-5 RECEPTOR: 10 μM dose, exon-exon boundary oligonucleotides
Excerpt: (§4) Murine BCL1 cells were chosen for screening antisense oligonucleotides targeted to murine IL-5 receptor α. These are B-cell leukemia cells derived from a spontaneously arising tumor of BALB/c origin, and proliferate in response to murine or human IL-5. This is a CD5+line which resembles a subset of human chronic lymphocytic leukemia tumors and secretes IgM upon lipopolysaccharide stimulation. Cells were obtained from the American Type Culture Collection and cultured in RPMI 1640 medium supplemented with 10% heat-inactivated fetal bovine serum (Sigma Chemical Co., St. Louis, Mo.), 10 mM Hepes, pH 7.2, 50 μM 2-ME, 2 mM L-glutamine, 100 U/ml penicillin and 100 μg/ml streptomycin (Gibco, Grand Island, N.Y.).
(§5) The effect of these compounds on both membrane and soluble forms of murine IL-5 receptor α were measured and are shown in Table 1B. Oligonucleotides were screened in BCL1 cells at a dose of 10 μM and IL-5 receptor α mRNA was measured by Northern blot. Percent inhibition is compared to untreated (no oligo) control.
(§6) Total BCL1 cellular RNA was isolated using the RNeasy™ kit (Qiagen, Santa Clara Calif.) . Northern blotting was performed using standard methods. The cDNA probes were generated from oligonucleotides matching the exon sequences of either exons 2, 8, 9 or 10. Signals were quantitated using a Molecular Dynamics PhosphorImager.

[2] = system: murine IL-5 receptor α mRNA, soluble form; assay: Soluble IL-5 receptor α mRNA by Northern blot in BCL1 cells; type: cell-based, mouse; settings: for % control soluble IL-5 Rα / % inhibition of soluble IL-5 Rα: BCL1 cells, 10 μM; for % control soluble IL-5 Rα: 24 hours, uniform 2′-MOE; for % inhibition of soluble IL-5 Rα: Northern blot, compared to untreated control, 2′-MOE gapmers; for % INHIB'N SOLUBLE IL-5 RECEPTOR: 10 μM dose, exon-exon boundary oligonucleotides
Excerpt: as §4, §5, §6

Substance: 26070 (antisense GTTCTCCTGGATCCAAGGCT; all 2'-MOE, all phosphorothioate, methylation of C not given here) [compound 26070]
- % CONTROL bcl-xs (human bcl-xs mRNA): 242%
- % CONTROL bcl-xl (human bcl-xl mRNA): 37%
- bcl-xs/bcl-xl (human bcl-x mRNA): 6.54

Substance: SEQ ID NO 55: GGCTCTAGGTGGTCATTCAG; 20mer 2′-MOE phosphorothioate, no ISIS # printed; Exon 1L 654-673 (all 2'-MOE, all phosphorothioate, methylation of C not given here)
- % CONTROL bcl-xs (human bcl-xs mRNA): 316%
- % CONTROL bcl-xl (human bcl-xl mRNA): 47%
- bcl-xs/bcl-xl (human bcl-x mRNA): 6.72

Substance: 26071 (antisense GCCGTTCTCCTGGATCCAAG; all 2'-MOE, all phosphorothioate, methylation of C not given here) [compound 26071]
- % CONTROL bcl-xs (human bcl-xs mRNA): 295%
- % CONTROL bcl-xl (human bcl-xl mRNA): 37%
- bcl-xs/bcl-xl (human bcl-x mRNA): 7.97

Substance: 26067 (GGATCCAAGGCTCTAGGTGG; all 2'-MOE, all phosphorothioate, methylation of C not given here) [compound 26067]
- % CONTROL bcl-xs (human bcl-xs mRNA): 211%
- % CONTROL bcl-xl (human bcl-xl mRNA): 32%
- bcl-xs/bcl-xl (human bcl-x mRNA): 6.59

Substance: 21756 (eA*eA*e[5mC]*eA*eA*eG*eA*e[5mC]*eG*eA*eA*eG*e[5mC]*eA*eG*eG*e[5mC]*eA*eG*e[5mC]; splice-switching) [compound 21756]
- % control membrane IL-5 Rα [1]: 6%
- % inhib'n membrane IL-5 Rα [1]: 94%
- % control soluble IL-5 Rα [2]: 166%

Substance: 18006 (TGAGAAGATTAACAAGACGA; antisense; listed as DNA, chemistry not fully specified) [compound 18006]
- % inhibition of membrane IL-5 Rα [1]: 59%
- % inhibition of soluble IL-5 Rα [2]: 65%

Substance: 21849 (e[5mC]*eT*eT*eT*e[5mC]*e[5mC]*eT*eT*eT*e[5mC]*e[5mC]*e[5mC]*eA*e[5mC]*eA*eT*eA*eA*eA*eT) [compound 21849]
- % INHIB'N MEMBRANE IL-5 RECEPTOR [1]: 70%
- % INHIB'N SOLUBLE IL-5 RECEPTOR [2]: 5%

Substance: 21755 (eA*eG*e[5mC]*eA*eG*eG*e[5mC]*eA*eG*e[5mC]*eT*eG*eT*eT*eG*eG*eG*eA*eG*e[5mC]; splice-switching) [compound 21755]
- % control membrane IL-5 Rα [1]: 16%
- % inhib'n membrane IL-5 Rα [1]: 84%
- % control soluble IL-5 Rα [2]: 181%

Substance: 21752 (eG*e[5mC]*e[5mC]*eA*eT*eT*e[5mC]*eT*eA*e[5mC]*e[5mC]*eA*eA*eG*eG*eA*e[5mC]*eT*eT*e[5mC]) [compound 21752]
- % control membrane IL-5 Rα [1]: 6%
- % control soluble IL-5 Rα [2]: 194%

Substance: SEQ ID NO 58: CCAAGGCTCTAGGTGGTCAT; 20mer 2′-MOE phosphorothioate, no ISIS # printed; Exon 1L 658-677 (all 2'-MOE, all phosphorothioate, methylation of C not given here)
- % CONTROL bcl-xs (human bcl-xs mRNA): 271%
- % CONTROL bcl-xl (human bcl-xl mRNA): 26%
- bcl-xs/bcl-xl (human bcl-x mRNA): 10.42

Substance: 21851 (eT*eA*eA*eA*eT*eG*eA*e[5mC]*eA*e[5mC]*eA*e[5mC]*eT*e[5mC]*eT*eG*e[5mC]*eA*eG*eA; antisense) [compound 21851]
- % INHIB'N MEMBRANE IL-5 RECEPTOR [1]: 61%
- % INHIB'N SOLUBLE IL-5 RECEPTOR [2]: 0%

Substance: 18008 (ACTCTGCAGATGAGTGAGAA; antisense; listed as DNA, chemistry not fully specified) [compound 18008]
- % inhibition of membrane IL-5 Rα [1]: 75%
- % inhibition of soluble IL-5 Rα [2]: 75%

Substance: SEQ ID NO 57: AAGGCTCTAGGTGGTCATTC; 20mer 2′-MOE phosphorothioate, no ISIS # printed; Exon 1L 656-675 (all 2'-MOE, all phosphorothioate, methylation of C not given here)
- % CONTROL bcl-xs (human bcl-xs mRNA): 405%
- % CONTROL bcl-xl (human bcl-xl mRNA): 53%
- bcl-xs/bcl-xl (human bcl-x mRNA): 7.64

Substance: 18005 (AGCAGGCAGCTGTTGGGAGC; antisense; listed as DNA, chemistry not fully specified) [compound 18005]
- % inhibition of membrane IL-5 Rα [1]: 55%
- % inhibition of soluble IL-5 Rα [2]: 59%

Substance: SEQ ID NO 54: CTCTAGGTGGTCATTCAGGT; 20mer 2′-MOE phosphorothioate, no ISIS # printed; Exon 1L 652-671 (all 2'-MOE, all phosphorothioate, methylation of C not given here)
- % CONTROL bcl-xs (human bcl-xs mRNA): 300%
- % CONTROL bcl-xl (human bcl-xl mRNA): 42%
- bcl-xs/bcl-xl (human bcl-x mRNA): 7.14

Substance: 18003 (ACAATGAGATGCCATTCTAC; antisense; listed as DNA, chemistry not fully specified) [compound 18003]
- % inhibition of membrane IL-5 Rα [1]: 15%
- % inhibition of soluble IL-5 Rα [2]: 20%

Substance: 21855 (eT*e[5mC]*eG*eA*eA*eG*eG*eT*eT*eT*e[5mC]*e[5mC]*eA*e[5mC]*eA*eT*eA*eA*eA*eT) [compound 21855]
- % INHIB'N MEMBRANE IL-5 RECEPTOR [1]: 14%
- % INHIB'N SOLUBLE IL-5 RECEPTOR [2]: 25%

Substance: 21853 (eT*eA*eA*eA*eT*eG*eA*e[5mC]*eA*e[5mC]*e[5mC]*e[5mC]*eA*e[5mC]*eA*eT*eA*eA*eA*eT; antisense) [compound 21853]
- % INHIB'N MEMBRANE IL-5 RECEPTOR [1]: 14%
- % INHIB'N SOLUBLE IL-5 RECEPTOR [2]: 45%

Substance: 18002 (GCCATTCTACCAAGGACTTC; listed as DNA, chemistry not fully specified) [compound 18002]
- % inhibition of membrane IL-5 Rα [1]: 5%
- % inhibition of soluble IL-5 Rα [2]: 8%

Substance: 21750 (eG*eA*e[5mC]*eT*eT*e[5mC]*e[5mC]*eT*eT*eT*e[5mC]*e[5mC]*eT*eT*eT*e[5mC]*e[5mC]*eT*eG*eG) [compound 21750]
- % control membrane IL-5 Rα [1]: 8%
- % inhib'n membrane IL-5 Rα [1]: 92%
- % control soluble IL-5 Rα [2]: 197%

Substance: 21847 (eG*eT*eT*eT*eT*eT*e[5mC]*e[5mC]*eT*eT*e[5mC]*eT*eG*eA*eA*eT*eG*eT*eG*eA; antisense) [compound 21847]
- % INHIB'N MEMBRANE IL-5 RECEPTOR [1]: 23%
- % INHIB'N SOLUBLE IL-5 RECEPTOR [2]: 20%

Substance: 23172 (GTTCCTGGCCCTTTCGGCTC; listed as DNA, chemistry not fully specified) [compound 23172]
- bcl-xs/bcl-xl* (change from the no-oligo ratio 17.56, which reads 1) (human bcl-x mRNA): 1.1

Substance: 21751 (e[5mC]*eA*eA*eG*eG*eA*e[5mC]*eT*eT*e[5mC]*e[5mC]*eT*eT*eT*e[5mC]*e[5mC]*eT*eT*eT*e[5mC]; splice-switching) [compound 21751]
- % control membrane IL-5 Rα [1]: 9%
- % inhib'n membrane IL-5 Rα [1]: 91%
- % control soluble IL-5 Rα [2]: 191%

Substance: 21757 (eT*eG*eA*eG*eA*eA*eG*eA*eT*eT*eA*eA*e[5mC]*eA*eA*eG*eA*e[5mC]*eG*eA; splice-switching) [compound 21757]
- % control membrane IL-5 Rα [1]: 19%
- % inhib'n membrane IL-5 Rα [1]: 81%
- % control soluble IL-5 Rα [2]: 144%

Substance: 26069 (antisense TCTCCTGGATCCAAGGCTCT; all 2'-MOE, all phosphorothioate, methylation of C not given here) [compound 26069]
- % CONTROL bcl-xs (human bcl-xs mRNA): 232%
- % CONTROL bcl-xl (human bcl-xl mRNA): 40%
- bcl-xs/bcl-xl (human bcl-x mRNA): 5.80

Substance: 21754 (eT*eG*eT*eT*eG*eG*eG*eA*eG*e[5mC]*eA*e[5mC]*eA*eA*eT*eG*eA*eG*eA*eT; splice-switching) [compound 21754]
- % control membrane IL-5 Rα [1]: 8%
- % inhib'n membrane IL-5 Rα [1]: 92%
- % control soluble IL-5 Rα [2]: 184%

Substance: 18001 (CAAGGACTTCCTTTCCTTTC; antisense; listed as DNA, chemistry not fully specified) [compound 18001]
- % inhibition of membrane IL-5 Rα [1]: 35%
- % inhibition of soluble IL-5 Rα [2]: 39%
